Patent US20060217443A1, “Method for preventing and/or treating vaginal and vulval infections” (Kimberly-Clark Worldwide, Inc., priority 2005, published 2006)
Read-outs that look alike come from different tables or passages of the source.

Legend:
Candida albicans [1] = experiment: Zone-of-inhibition test, Candida albicans; assay type: cell-based
Description: (§1) A sample of Candida albicans, the yeast found in candidiasis, was also obtained from the American Type Culture Collection (ATCC), catalog number 10231, and was cultured in YM agar (Difco 0712) and YM broth (Difco 0711). A microorganism culture of 10^5 cfu (colony forming units)/milliliter in a 1× phosphate buffered saline (PBS) solution (diluted from 10× PBS LIQUID CONCENTRATE from VWR Cat. No. EM-6507] was prepared for each of Candida albicans and Lactobacillus acidophilus. One milliliter of each solution was plated on proper agar plates, depending on which microorganism was being tested. The agar plates were incubated at 35 degrees Celsius for four hours. Three 4 millimeter diameter wells were then punched into each agar plate. A test sample of 10 mg/ml gallic acid in sterilized 2-N-morpholino ethane sulfonic (MES, pH=4.7) buffer (0.1 M 2-[morpholino]-ethanesulfonic acid, 0.9 percent NaCl, pH 4.7, prepared from BupHTM MES Buffer Saline Pack from Cat. No. 28390, Pierce Biotechnology, Inc., Rockford, Ill.) was added to one well of each plate. […] The plates were incubated overnight at 35 degrees Celsius. The presence of a zone of microorganism inhibition was measured the following day for Candida albicans and Lactobacillus acidophilus activity, respectively.

Gardnerella vaginalis = experiment: Inhibition test in solution by plate count, Gardnerella vaginalis; assay type: cell-based; conditions: 7.5 mg/ml gallic acid
Description: A sample of Gardnerella vaginalis, the pathogenic bacterium found in bacterial vaginosis, was obtained from the American Type Culture Collection (ATCC), catalog number 14018. The culture medium was ATCC medium 70 and Casman's medium (BD 229010) with 5 percent rabbit blood.
A test compound of Gardnerella vaginalis was prepared in culture media to form a suspension. Control and gallic acid solutions (0.9 milliliters; 7.5 milligram gallic acid/milliliter) were filtered and added into separate culture tubes, and to these were added 0.1 milliliter of the Gardnerella vaginalis suspension at a concentration of around 10^6 cfu/milliliter. The culture tubes were incubated at 37 degrees Celsius for 24 hours.
The samples in the culture tubes were then diluted at 1, 10 and 100 times, and 100 microliters of each dilution was plated onto agar plates with WASP (Whitely Automatic Spiral Plate) spiral plating equipment from Don Whitely Scientific Limited, USA. The plates were incubated overnight at 35 degrees Celsius, and the colonies were counted on each plate by either ProtoCol® from Synbiosis, Frederick, Md., USA Whitely Scientific Limited, USA or by hand count.

[2] = Highest concentration obtainable in water; assay type: physicochemical; conditions: gallic acid monohydrate, only partially water soluble
Candida albicans [3] = experiment: Inhibition test in solution by measuring optical density, Candida albicans; assay type: cell-based; conditions: gallic acid 5 milligram/milliliter, 24 hours, FIG. 3
Description: A sample of Candida albicans, the yeast found in candidiasis, was also obtained from the American Type Culture Collection (ATCC), catalog number 10231, and was cultured in YM agar (Difco 0712) and YM broth (Difco 0711). […] Control and gallic acid solutions (0.9 milliliters) were filtered and added into separate culture tubes, and to these were added 0.1 milliliter of either the Candida albicans or Lactobacillus acidophilus suspension at a concentration of around 10^6 cfu/milliliter. The culture tubes were then incubated overnight at 37 degrees Celsius, whereafter the optical density was measured at 2, 4, 6 and 24 hours at 590 nanometers, by pippeting 100 microliters of the control or sample solutions into 96-well microplates, and then using a Molecular Devices of Sunnyvale, Calif. ThermoMax Microplate Reader to obtain the optical density readings at 590 nm wavelengths.

[4] = test system: Lactobacillus acidophilus; experiment: Inhibition test in solution by measuring optical density, Lactobacillus acidophilus; assay type: cell-based; conditions: gallic acid 5 milligram/milliliter, 24 hours, FIG. 4
Description: A sample of Lactobacillus acidophilus, a desirable bacterium in the vaginal ecosystem, was also obtained from the American Type Culture Collection (ATCC), catalog number 4354, and was cultured in ATCC medium 416. […] Control and gallic acid solutions (0.9 milliliters) were filtered and added into separate culture tubes, and to these were added 0.1 milliliter of either the Candida albicans or Lactobacillus acidophilus suspension at a concentration of around 10^6 cfu/milliliter. The culture tubes were then incubated overnight at 37 degrees Celsius, whereafter the optical density was measured at 2, 4, 6 and 24 hours at 590 nanometers, by pippeting 100 microliters of the control or sample solutions into 96-well microplates, and then using a Molecular Devices of Sunnyvale, Calif. ThermoMax Microplate Reader to obtain the optical density readings at 590 nm wavelengths.

Trichomonas vaginalis = experiment: Viable Trichomonas vaginalis cell count under a microscope; assay type: cell-based; conditions: for Inhibitory effect on Trichomonas vaginalis cell counts compared to control: gallic acid 0.11 percent
Description: A sample of Trichomonas vaginalis, the parasite found in trichomonas vaginitis, was obtained from the American Type Culture Collection (ATCC), catalog number 30001. The culture medium was LYI-S-2 medium (ATCC medium 2154).
A sterile LYI-S-2 medium was prepared according to the manufacturer's instructions, and the pH of this medium was adjusted to pH 6.0 using 1 N HCl. Gallic acid monohydrate (SIGMA-398225 from Signa Aldrich, USA) was dissolved in the LYI-S-2 medium. […] 0.9 milliliter of the gallic acid/LYI-S-2 solution or culture medium only (as control) was added into different culture tubes.
0.1 milliliter of Trichomonas vaginalis culture suspension, at a concentration of 1×10^6/milliliter, was added to each of the culture tubes, which were then incubated at 35 degrees Celsius on a 15 degree horizontal slant.
The viable Trichomonas vaginalis cells in each tube were counted under a microscope after 24 hours.
This procedure was repeated twice.
Essentially the same procedure was performed as described in Example 1, but this time differing concentrations of gallic acid were tested on samples of Trichomonas vaginalis. The gallic acid concentrations that were tested were: 0.11 percent, 0.66 percent and 1.1 percent. More samples in each group were included (n=4), and the effects of the gallic acid over a longer time period were also observed, i.e. after 24 and 48 hours.

[5] = test system: Lactobacillus acidophilus; experiment: Zone-of-inhibition test, Lactobacillus acidophilus; assay type: cell-based
Description: as §1, with “Lactobacillus acidophilus, a desirable bacterium in” for “Candida albicans,”, “vaginal ecosystem,” for “yeast found in candidiasis,”, “4354,” for “10231,”, “ATCC medium 416.” for “YM agar (Difco 0712) and YM broth (Difco 0711).”

[6] = test system: Lactobacillus acidophilus; conditions: previously shown; cited from earlier work
[7] = 10 milligram/ml gallic acid or 0.5 percent Benzyl Quats in well, MES buffer pH 4.7, overnight 35 degrees Celsius, n = 2
[8] = zone-of-inhibition test, gallic acid 10 mg/ml, Benzyl Quats 0.5 percent

O=C(O)c1cc(O)c(O)c(O)c1 [gallic acid, 3,4,5-trihydroxybenzoic acid]
Zone of inhibition, Candida albicans (Candida albicans [1]; [7]): 5 millimeter
Effect on growth of Candida albicans (in words) (Candida albicans [1]; [8]): selectively inhibited Candida albicans
Gardnerella vaginalis plate count, Average (Gardnerella vaginalis; 24 hours treatment, n = 4, negative control 1.81E+08, p < 0.05): *3.43E+04
inhibition at 7500 µg/mL (Gardnerella vaginalis; Gardnerella vaginalis, 24 hours of treatment, read-out: Inhibition on the growth of Gardnerella vaginalis compared to control group): > 100%
Highest concentration of gallic acid that could be obtained in water [2]: 1.1 percent (g/100 milliliter)
Growth of Candida albicans by optical density at 590 nm (in words) (Candida albicans [3]): significantly inhibit the growth of Candida albicans
Growth of Lactobacillus acidophilus by optical density at 590 nm (in words) [4]: did not show any significant inhibition
Inhibitory effect on Trichomonas vaginalis cell counts compared to control (Trichomonas vaginalis; 24 hours, n=4, FIG. 1): 50%
Inhibitory effect on Trichomonas vaginalis cell counts compared to control (Trichomonas vaginalis; 48 hours, n=4, FIG. 2): 70%
Live Trichomonas vaginalis cells (in words) (Trichomonas vaginalis; gallic acid 0.66 percent, 24 hours, n=4, Example 2): No live Trichomonas vaginalis cells were observed
Live Trichomonas vaginalis cells (in words) (Trichomonas vaginalis; gallic acid 0.66 percent, 48 hours, n=4, Example 2): No live Trichomonas vaginalis cells were observed
Live Trichomonas vaginalis cells (in words) (Trichomonas vaginalis; gallic acid 1.1 percent, 24 hours, Example 1): no live Trichomonas vaginalis cells were observed
Number of Trichomonas cells, Repeat 2 (Trichomonas vaginalis; gallic acid 1.1 percent, 24 hours, Example 1, control 1 000 000): 0
Number of Trichomonas cells, Repeat 1 (Trichomonas vaginalis; gallic acid 1.1 percent, 24 hours, Example 1, control 900 000): 0
Live Trichomonas vaginalis cells (in words) (Trichomonas vaginalis; gallic acid 1.1 percent, 24 hours, n=4, Example 2): No live Trichomonas vaginalis cells were observed
Live Trichomonas vaginalis cells (in words) (Trichomonas vaginalis; gallic acid 1.1 percent, 48 hours, n=4, Example 2): No live Trichomonas vaginalis cells were observed
Zone of inhibition, Lactobacillus acidophilus [5, 7]: 0 millimeter
Effect on growth of Lactobacillus acidophilus (in words) [5, 8]: did not affect the growth of Lactobacillus acidophilus
Effect on growth of Lactobacillus acidophilus (in words) [6]: does not affect the growth of Lactobacillus acidophilus
